Measured values taken from patent US5994311A, “Cell adhesion peptides for modifying the adhesion capacity of eukaryotic cells between each other” (Beiersdorf AG, priority 1994, dated 1999).

Legend:
HDF cells [1] = assay: Cell adherence test with HDF cells; type: cell-based, human; conditions: for CELL ADHESION [%]: peptide/BSA conjugates bound to polystyrene, approx. 35 nmol peptide per well, 1 hour at 37° C., fibronectin positive control, BSA negative control; for adherence promoting effect for HDF cells (in words): BSA conjugates
Experimental: (§1) 50 μl each of the peptide/BSA conjugates or the peptides were placed, in different concentrations, in the wells of a 96-well flat-bottomed microtiter plate (DYNATECH). After drying for 2 hours at 37° C., unbound peptide/BSA conjugate or peptide is removed by washing with phosphate-buffered saline solution (PBS) several times. In order to prevent the non-specific adhesion of the cells to polystyrene, all the wells were subsequently saturated for 30 min. at 37° C. with heat-denatured BSA (2 mg/ml). Following that, it was once again washed with PBS.
As a positive control for the adhesion capacity, bovine fibronectin (Paesel & Lorey, 1 mg/ml) was used, and heat-denatured BSA (2 mg/ml) as a negative control; this is not capable of influencing intercellular adhesion.
(§2) The cell adherence test was performed with AKR-2B mouse fibroblasts (Shipley et al., Cancer Res. 44 (1984) 710-716) and human dermal fibroblasts (HDF, removed from the lower arm, 18th passage). AKR-2B cells were cultivated in McCoy's medium (10% calf serum), and HDF cells in Dulbecco's modified eagle medium (DMEM) in the presence of 10% foetal calf serum (FCS) and 1% streptomycin/penicillin. For the adherence test, the cells were washed twice with protein-free HYBRI-MAX™ (medium for culture of hybridoma cell types containing 1 mM Mn^2+ and 0.02% heat-denatured BSA) medium (SIGMA) and then taken up in Hybri-Max (1 mM Mn^2+, 0.02% heat-denatured BSA). In this way, it was largely ensured that neither protein components from the culture medium, nor serum components, such as fibronectin for example, could influence the adherence test. In each well of the microtiter plate previously filled with test substance (peptide concentration per well: approx. 35 nmol), 200 μl of the cell suspension taken up in HYBRI-MAX™ (medium for culture of hybridoma cell types containing 1 mM Mn^2+ and 0.02% heat-denatured BSA) (1 mM Mn^2+, 0.02% heat-denatured BSA) (1.5×10^5 cells/well) were pipetted and incubated for 1 hour in an incubator at 37° C., 5% CO2 atmosphere. After that, the supernatant was decanted off, and non-adhered cells were removed by washing with PBS. The adhered cells were fixed for 0.5 min with methanol and stained with the MERCK HEMACOLOR™ (colution for fast staining in microscopy) reagent kit in order to quantify the number of cells.

AKR-2B cells [2] = assay: Cell adherence test, dilution series on AKR-2B cells (EC50); type: cell-based, mouse; conditions: for EC50 (semi-maximum cell adherence): peptide/BSA conjugates diluted in PBS, read off from curve
Experimental: as §1, §2
For some selected conjugates, dilution series were included in order to determine binding constants for AKR-2B cells. For this purpose, the peptide/BSA conjugates were diluted in PBS, and 50 μl each of these dilutions were placed in the wells of a microtiter plate. Incubation and all the other steps were performed according to the method described above. After the readings had been plotted graphically, the difference between the figure for the maximum cell adherence and the zero value could be formed, and the EC50 values shown in Tab. 3 as a measure of the semi-maximum cell adherence could be read off from the line of the curve.
In order to establish binding constants for the peptides of the invention, dose effectiveness curves on AKR-2B cells were recorded for some selected conjugates. The EC50 values shown in Tab. 3 as a measure of semi-maximum cell adherence were read off from the curve concerned (plotted: cell adherence versus peptide concentration). Low EC50 values mean that only small quantities of the substances need to be used in order to achieve a semi-maximum effect, in other words that the substance is very effective.

HDF cells [3] = assay: Chemotaxis test using HDF cells (modified Boyden chambers); type: cell-based, human; conditions: 4 hours at 37° C., medium control deducted, Collagen 0.3 nmol/ml, Fibronectin 0.6 nmol/ml, peptides 1 μmol/ml
Experimental: In addition to wound contraction, the epithelialisation of the wound as a result of the migration of cells from the edges of wounds plays a significant role in wound repair. Some selected peptides were investigated in chemotaxis tests in order to study their ability to simulate the migration of HDF cells. The test was conducted in accordance with Scharffetter-Kochanek et al. (J. Invest. Dermatol. 98 (1992) 3-11) in modified Boyden chambers. In the lower cavity of the Boyden chamber, 210 μl DMEM (control) or the potential chemoattractant taken up in the same volume of DMEM were placed. […] 2×10^5 cells were pipetted into the upper Boyden chamber (volume 810 μl). The incubation time was 4 hours at 37° C. The results for the peptides investigated are summed up in Tab. 5, with the figures for the medium control already having been deducted from these readings.

AKR-2B cells [4] = assay: Competitive inhibition test (adherence of AKR-2B cells to BSA/AP#2 conjugate); type: cell-based, mouse; conditions: for Inhibition (maximum measured reduction in cell adherence): soluble peptide 1 μmol/well, AKR-2B cells, plates coated with BSA/AP#2 conjugate 10 nmol/well; for inhibitory effect on the attachment of AKR-2B cells (in words): soluble peptides, competition with BSA/AP#2 conjugate
Experimental: Via the specific saturation of surface receptors (shown schematically in FIG. 3E), it is possible, in the case of soluble peptides, to measure an inhibitory effect on the adhesion of test cells (AKR-2B). In the experiment described here, a selected peptide/BSA conjugate corresponding to a peptide concentration of 10 nmol/well was placed in the microtiter plates and incubated for 2 hours at 37° C. Unsaturated binding sites in the culture vessel were subsequently saturated for 30 minutes with heat-denatured BSA (2 mg/ml). The peptides were dissolved in HYBRI-MAX™ (medium for culture of hybridoma cell types containing 1 mM Mn^2+ and 0.02% heat-denatured BSA) Medium (0.02 % BSA, 1 mM Mn^2+), and the pH was adjusted to a level of 7.2 to 7.4. Following that, the peptide solutions were treated with Reductacryl®. […] From these stock solutions, dilution series were prepared in HYBRI-MAX™ (medium for culture of hybridoma cell types containing 1 mM Mn^2+ and 0.02% heat-denatured BSA) medium (1 mM Mn^2+, 0.02% heat-denatured BSA), and added to the AKR-2B cells taken up in the same medium. After that, the specimens were incubated for 10 minutes at 37° C., while being gently shaken. The cells pre-treated in this way (1.5×10^5 /200 μl) were subsequently transferred to the conjugate-coated microtiter plates. The further treatment of the test plates was performed by analogy with 4.1.
The inhibitory effect of the peptides is shown in Tab. 4 as the difference between the 100% figure (control, with no peptide in the medium), and the maximum measured reduction in cell adherence at a peptide concentration of 1 μmol/well. A figure of 100% would mean complete inhibition, i.e. the maximum effect.
For the peptides of the invention available in soluble form, i.e. in a form not bound to carrier molecules, it is possible to detect adhesion inhibiting properties which come about as a result of the specific blockade of epitopes on surface receptors of the test cells (cf. FIG. 3E).
The AP#2 peptide was selected as an internal standard. Compared to most of the other peptides of the invention (cf. Tab. 2), the adhesion promoting properties of BSA/AP#2 conjugates lie within a region of semi-maximum effectiveness. Experience has shown that, in order to detect inhibitory effects, it is favourable to measure in a range of less than optimum effect, since otherwise weak inhibitory effects might not be detected.

Substance	CELL ADHESION [%] (HDF cells [1])	adherence promoting effect for HDF cells (in words) (HDF cells [1])	other results
G-V-V-S-T-P-L-V-N-L-I-N-G-(C) [AP#5]	53.2	–	–
G-R-G-D-S-(C) [IVA1b, reference compound]	93.8	similarly good to those of fibronectin	–
G-I-V-R-T-P-L (GIVRTPL) [AP#9]	93.0	good effectiveness	EC50 (semi-maximum cell adherence) (AKR-2B cells [2]): 50.7 pmol/well
G-G-G-S-G-G-G-S-S-G-S-G-(C) (GGGSGGGSSGSG; C-terminal Cys) [AP#10]	27.5	significant adhesion modifying effect	–
S-V-T-L-G-(C) [SVTLG, reference compound]	72.1	slightly less effective	EC50 (semi-maximum cell adherence) (AKR-2B cells [2]): 64.5 pmol/well
A-E-L-L-D-G-(C) (AELLDG; C-terminal Cys) [AP#24]	32.7	–	–
L-A-E-L-L-D-G-E-(C) [AP#20]	54.1	increased adherence promoting effect	–
Collagen: collagen I, positive control in chemotaxis test	–	–	Avge. no. of cells per field of vision (HDF cells [3]): 45.7; Chemotactic migration [%] (HDF cells [3]): 100.0%
L-A-E-L-L-D-G-E-G-Q-(C) [AP#18]	11.9	only have a basal adhesion promoting effect	–
Q-I-D-F-N-R-L-F-T-H-P-V-T-D-L-F-D-P-(C) [AP#1]	72.5	Particularly good effectiveness	EC50 (semi-maximum cell adherence) (AKR-2B cells [2]): 32.9 pmol/well
Fibronectin	–	–	Avge. no. of cells per field of vision (HDF cells [3]): 43.9; Chemotactic migration [%] (HDF cells [3]): 96.0%
L-A-E-L-L-L-G-(C) (LAELLLG; C-terminal Cys) [AP#23]	26.4	somewhat reduced adherence efficacy	–
G-G-G-A-G-G-G-S-S-G-S-G-(C) (GGGAGGGSSGSG; C-terminal Cys) [AP#11]	30.5	significant adhesion modifying effect	–
L-L-D-G-(C) [AP#26]	31.3	–	–
L-A-E-L-L-D-G-(C) (LAELLDG; C-terminal Cys) [AP#21]	43.5	–	–
G-I-V-R-T-P-L-A-E-L (GIVRTPLAEL) [AP#8]	78.2	good effectiveness	EC50 (semi-maximum cell adherence) (AKR-2B cells [2]): 41.7 pmol/well
I-V-R-T-P-L-A-E-L-L-D-G-(C) [AP#13]	37.3	–	–
FN: bovine fibronectin (Paesel & Lorey, 1 mg/ml), positive control for the adhesion capacity	100.0	–	–
V-T-G-R-G-D-S-P-A-(C) [IVA1, reference compound]	93.9	similarly good to those of fibronectin	EC50 (semi-maximum cell adherence) (AKR-2B cells [2]): 0.73 pmol/well; Inhibition (maximum measured reduction in cell adherence) (AKR-2B cells [4]): 2.6%; inhibitory effect on the attachment of AKR-2B cells (in words) (AKR-2B cells [4]): virtually no effect
R-T-P--- -A-E-L-L-D-G-(C) [AP#16]	21.4	–	–
L-A-E-L-L-D-G-E-G-(C) [AP#19]	51.9	increased adherence promoting effect	–
L-A-E-L-L-E-G-(C) (LAELLEG; C-terminal Cys) [AP#22]	18.8	somewhat reduced adherence efficacy	–
T-V-L-R-N-I-Q-E-L-L-D-G-E-(C) [AP#12]	74.2	–	EC50 (semi-maximum cell adherence) (AKR-2B cells [2]): 29.0 pmol/well
G-T-P-G-P-Q-G-I-A-G-Q-R-G-V-V-(C) (GTPGPQGIAGQRGVV; C-terminal Cys) [P-15, adhesion promoting fragment of the α-1(I) chain of collagen, reference compound]	62.1	slightly less effective	–
L-D-G-(C) [AP#27]	23.3	significant adhesion promoting effect	–
E-L-L-D-G-(C) [AP#25]	47.7	–	EC50 / binding constant on AKR-2B cells (in words) (AKR-2B cells [2]; peptide/BSA conjugates): better binding constant was obtained compared to the control; EC50 (semi-maximum cell adherence) (AKR-2B cells [2]): 42.0 pmol/well; Inhibition (maximum measured reduction in cell adherence) (AKR-2B cells [4]): 18.1%; inhibitory effect on the attachment of AKR-2B cells (in words) (AKR-2B cells [4]): slightly less efficiency
R-T-P-L-A-E-L-L-D-G-(C) [AP#15]	28.5	–	–
I-V-R-T-P--- -A-E-L-L-D-G-(C) (AELLDG; N-terminal IVRTP; C-terminal Cys) [AP#14]	27.0	–	–
